From ChEMBL document CHEMBL4270563, “Neurogenic and neuroprotective donepezil-flavonoid hybrids with sigma-1 affinity and inhibition of key enzymes in Alzheimer's disease” (Eur J Med Chem, 2018)
The source made the active and inactive calls. The calls are words filed in the database; no cut-off is given here.

Tests used:
[1] = Antioxidant activity assessed as trolox equivalent of AAPH-induced radical scavenging activity pretreated for 15 mins followed by APPH challenge measured every minute for 80 mins by ORAC-FL assay; type: functional
[2] = biological target: Sigma non-opioid intracellular receptor 1 (Cavia porcellus, UniProt Q60492); assay: Displacement of (+)-[3H]pentazocine from guinea pig brain membrane sigma1 receptor by liquid scintillation counting method
[3] = biological target: T1, Acetylcholinesterase (Homo sapiens, UniProt P22303); assay: Inhibition of recombinant human AChE expressed in HEK293 cells using acetylthiocholine iodide as substrate pretreated for 5 mins followed by substrate addition and measured for 5 mins by Ellman's method
[4] = biological target: Cholinesterase (Homo sapiens, UniProt P06276); assay: Inhibition of human serum BuChE using butyrylthiocholine as substrate pretreated for 5 mins followed by substrate addition and measured for 5 mins by Ellman's method
[5] = biological target: T2, Amine oxidase [flavin-containing] B (Homo sapiens, UniProt P27338); assay: biochemical; type: cell-based
T2 sequence (P27338 whole entry): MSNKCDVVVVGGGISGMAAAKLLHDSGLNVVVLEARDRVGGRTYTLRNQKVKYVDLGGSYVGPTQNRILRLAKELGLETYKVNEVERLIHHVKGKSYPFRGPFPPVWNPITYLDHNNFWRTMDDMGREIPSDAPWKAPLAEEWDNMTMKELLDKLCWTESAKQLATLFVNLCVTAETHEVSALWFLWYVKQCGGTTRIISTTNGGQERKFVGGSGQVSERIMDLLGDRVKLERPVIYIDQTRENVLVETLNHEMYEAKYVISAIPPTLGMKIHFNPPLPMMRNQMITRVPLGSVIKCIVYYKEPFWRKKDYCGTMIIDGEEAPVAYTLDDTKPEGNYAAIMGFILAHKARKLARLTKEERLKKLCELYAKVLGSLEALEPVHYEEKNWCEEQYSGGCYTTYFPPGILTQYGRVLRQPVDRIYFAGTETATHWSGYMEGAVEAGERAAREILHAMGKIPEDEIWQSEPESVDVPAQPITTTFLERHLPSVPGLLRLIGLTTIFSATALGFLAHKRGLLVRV
Description: Inhibition of recombinant human MAO-B expressed in baculovirus infected BTI insect cells using p-tyramine as substrate pretreated for 15 mins followed by substrate addition by horse-radish peroxidase/amplex red-based fluorescence method

[6] = species: Homo sapiens; assay: Selectivity ratio of IC50 for recombinant human MAO-A expressed in baculovirus infected BTI insect cells to IC50 for recombinant human MAO-B expressed in baculovirus infected BTI insect cells
[7] = Selectivity ratio of Ki for displacement of [3H]DTG from sigma2 receptor in rat liver membranes to Ki for displacement of (+)-[3H]pentazocine from guinea pig brain membrane sigma1 receptor; type: cell membranes
[8] = biological target: T3, Polyunsaturated fatty acid 5-lipoxygenase (Homo sapiens, UniProt P09917); assay: Inhibition of human 5-lipoxygenase using arachidonic acid as substrate pretreated for 10 mins followed by substrate and ATP addition and measured after 20 mins by H2DCFDA probe based fluorescence assay
T3 sequence (P09917 whole entry): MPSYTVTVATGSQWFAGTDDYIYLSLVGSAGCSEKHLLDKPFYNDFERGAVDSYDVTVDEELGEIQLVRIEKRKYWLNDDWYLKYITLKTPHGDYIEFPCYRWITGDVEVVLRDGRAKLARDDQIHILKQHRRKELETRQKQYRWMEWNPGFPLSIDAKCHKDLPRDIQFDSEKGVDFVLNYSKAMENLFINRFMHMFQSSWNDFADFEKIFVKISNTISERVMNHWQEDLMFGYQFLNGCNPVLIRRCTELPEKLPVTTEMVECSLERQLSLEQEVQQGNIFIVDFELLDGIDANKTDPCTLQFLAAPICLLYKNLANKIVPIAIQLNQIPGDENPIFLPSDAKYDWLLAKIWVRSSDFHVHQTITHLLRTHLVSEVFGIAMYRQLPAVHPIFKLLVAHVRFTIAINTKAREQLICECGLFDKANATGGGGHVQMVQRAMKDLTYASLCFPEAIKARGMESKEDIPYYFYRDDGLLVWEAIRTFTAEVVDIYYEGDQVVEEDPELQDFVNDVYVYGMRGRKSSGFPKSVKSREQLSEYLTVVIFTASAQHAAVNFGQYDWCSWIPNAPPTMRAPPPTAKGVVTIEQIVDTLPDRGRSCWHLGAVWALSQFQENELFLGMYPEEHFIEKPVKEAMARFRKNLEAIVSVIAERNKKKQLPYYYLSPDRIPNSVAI

[9] = species: Homo sapiens; assay: Selectivity index, ratio of IC50 for human serum BuChE to IC50 for recombinant human AChE expressed in HEK293 cells; type: cell-based
[10] = biological target: T4, Sigma intracellular receptor 2 (Rattus norvegicus, UniProt Q5U3Y7); assay: Displacement of [3H]DTG from sigma2 receptor in rat liver membranes by liquid scintillation counting method; type: cell membranes, Membrane
T4 sequence (Q5U3Y7 whole entry): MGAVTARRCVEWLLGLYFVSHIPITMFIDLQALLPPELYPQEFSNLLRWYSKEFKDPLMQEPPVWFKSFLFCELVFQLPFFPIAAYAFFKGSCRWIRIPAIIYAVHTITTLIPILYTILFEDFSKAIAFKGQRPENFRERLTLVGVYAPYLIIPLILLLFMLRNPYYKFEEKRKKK

[11] = biological target: T5, Amine oxidase [flavin-containing] A (Homo sapiens, UniProt P21397); assay: Inhibition of recombinant human MAO-A expressed in baculovirus infected BTI insect cells using p-tyramine as substrate pretreated for 15 mins followed by substrate addition by horse-radish peroxidase/amplex red-based fluorescence method
T5 sequence (P21397 whole entry): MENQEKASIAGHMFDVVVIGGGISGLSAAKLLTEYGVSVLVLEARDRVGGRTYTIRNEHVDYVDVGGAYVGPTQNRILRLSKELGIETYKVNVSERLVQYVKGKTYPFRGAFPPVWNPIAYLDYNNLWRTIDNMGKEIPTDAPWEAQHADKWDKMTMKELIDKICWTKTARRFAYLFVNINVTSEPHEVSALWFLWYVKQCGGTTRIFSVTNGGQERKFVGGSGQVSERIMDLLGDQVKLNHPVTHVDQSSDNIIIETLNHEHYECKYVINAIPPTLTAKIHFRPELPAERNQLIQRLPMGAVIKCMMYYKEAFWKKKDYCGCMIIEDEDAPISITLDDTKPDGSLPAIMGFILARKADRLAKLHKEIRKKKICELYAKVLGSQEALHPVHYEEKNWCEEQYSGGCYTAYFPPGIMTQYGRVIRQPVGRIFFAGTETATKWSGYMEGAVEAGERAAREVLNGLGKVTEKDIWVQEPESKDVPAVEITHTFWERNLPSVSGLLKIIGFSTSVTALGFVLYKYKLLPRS

[12] = in vitro; details: PAMPA, pH 7.4
Description: Permeability of the compound in pH 7.4 PBS by PAMPA-BBB assay

[13] = test system: SH-SY5Y; assay: Neuroprotective activity against rotenone/oligomycin A-induced mitochondrial oxidative stress in human SH-SY5Y cells at 10 nM after 24 hrs by MTT assay relative to control; type: functional
[14] = test system: SH-SY5Y; assay: Neuroprotective activity against rotenone/oligomycin A-induced mitochondrial oxidative stress in human SH-SY5Y cells at 0.1 uM after 24 hrs by MTT assay relative to control; type: functional
[15] = test system: SH-SY5Y; assay: Neuroprotective activity against rotenone/oligomycin A-induced mitochondrial oxidative stress in human SH-SY5Y cells at 0.3 uM after 24 hrs by MTT assay relative to control; type: functional
[16] = test system: SH-SY5Y; assay: Neuroprotective activity against rotenone/oligomycin A-induced mitochondrial oxidative stress in human SH-SY5Y cells at 3 uM after 24 hrs by MTT assay relative to control; type: functional
[17] = test system: SH-SY5Y; assay: Neuroprotective activity against rotenone/oligomycin A-induced mitochondrial oxidative stress in human SH-SY5Y cells at 1 uM after 24 hrs by MTT assay relative to control; type: functional
[18] = biological target: T6, Polyunsaturated fatty acid 5-lipoxygenase (Homo sapiens) (UniProt P09917); assay: Inhibition of human 5-lipoxygenase at 10 uM using arachidonic acid as substrate pretreated for 10 mins followed by substrate and ATP addition and measured after 20 mins by […] probe based fluorescence assay relative to control
T6 sequence (whole entry): T3 sequence (P09917 whole entry)

[19] = species: Homo sapiens; assay: Selectivity ratio of IC50 for recombinant human MAO-B expressed in baculovirus infected BTI insect cells to IC50 for recombinant human MAO-A expressed in baculovirus infected BTI insect cells
[20] = Antioxidant activity assessed as trolox equivalent of AAPH-induced radical scavenging activity at 10 uM pretreated for 15 mins followed by APPH challenge measured every minute for 80 mins by ORAC-FL assay; type: functional
[21] = biological target: T1, Acetylcholinesterase; assay: Inhibition of recombinant human AChE expressed in HEK293 cells using varying levels of acetylthiocholine iodide as substrate by Lineweaver-burk plot analysis
[22] = species: Mus musculus; assay: Neurogenic activity in C57BL/6 mouse subgranular zone neural stem cell-derived neurospheres assessed as neuronal maturation at 10 uM treated for 7 days followed by poly-L-lysine addition and measured after 3 days by DAPI staining based confocal microscopic analysis; type: functional
[23] = species: Mus musculus; assay: Neurogenic activity in C57BL/6 mouse subgranular zone neural stem cell-derived neurospheres assessed as differentiation of neural stem cells at 10 uM treated for 7 days followed by poly-L-lysine addition and measured after 3 days by DAPI staining based confocal microscopic analysis; type: functional

Sequence of Sigma non-opioid intracellular receptor 1 (Q60492 whole entry): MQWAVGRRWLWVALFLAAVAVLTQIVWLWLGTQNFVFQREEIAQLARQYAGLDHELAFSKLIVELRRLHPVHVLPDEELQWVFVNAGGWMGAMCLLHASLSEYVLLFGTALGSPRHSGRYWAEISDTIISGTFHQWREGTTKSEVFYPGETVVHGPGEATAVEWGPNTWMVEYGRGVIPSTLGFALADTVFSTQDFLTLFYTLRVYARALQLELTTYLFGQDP
T1 sequence (P22303 whole entry): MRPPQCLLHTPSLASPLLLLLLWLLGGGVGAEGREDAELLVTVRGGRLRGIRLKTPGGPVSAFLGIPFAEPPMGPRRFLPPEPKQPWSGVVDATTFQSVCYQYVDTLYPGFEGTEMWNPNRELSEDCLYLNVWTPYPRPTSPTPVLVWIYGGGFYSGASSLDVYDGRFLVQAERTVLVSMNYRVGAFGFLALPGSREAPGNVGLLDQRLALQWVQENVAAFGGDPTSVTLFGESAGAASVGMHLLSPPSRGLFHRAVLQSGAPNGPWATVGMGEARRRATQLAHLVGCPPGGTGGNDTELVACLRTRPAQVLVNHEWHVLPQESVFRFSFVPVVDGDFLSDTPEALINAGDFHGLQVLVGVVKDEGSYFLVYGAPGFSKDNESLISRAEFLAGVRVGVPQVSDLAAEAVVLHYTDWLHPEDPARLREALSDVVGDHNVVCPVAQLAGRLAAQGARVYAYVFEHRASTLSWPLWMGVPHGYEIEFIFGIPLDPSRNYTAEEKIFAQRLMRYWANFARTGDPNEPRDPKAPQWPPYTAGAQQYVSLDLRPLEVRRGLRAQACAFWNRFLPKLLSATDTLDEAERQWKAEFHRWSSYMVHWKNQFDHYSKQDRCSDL
Sequence of Cholinesterase (P06276 whole entry): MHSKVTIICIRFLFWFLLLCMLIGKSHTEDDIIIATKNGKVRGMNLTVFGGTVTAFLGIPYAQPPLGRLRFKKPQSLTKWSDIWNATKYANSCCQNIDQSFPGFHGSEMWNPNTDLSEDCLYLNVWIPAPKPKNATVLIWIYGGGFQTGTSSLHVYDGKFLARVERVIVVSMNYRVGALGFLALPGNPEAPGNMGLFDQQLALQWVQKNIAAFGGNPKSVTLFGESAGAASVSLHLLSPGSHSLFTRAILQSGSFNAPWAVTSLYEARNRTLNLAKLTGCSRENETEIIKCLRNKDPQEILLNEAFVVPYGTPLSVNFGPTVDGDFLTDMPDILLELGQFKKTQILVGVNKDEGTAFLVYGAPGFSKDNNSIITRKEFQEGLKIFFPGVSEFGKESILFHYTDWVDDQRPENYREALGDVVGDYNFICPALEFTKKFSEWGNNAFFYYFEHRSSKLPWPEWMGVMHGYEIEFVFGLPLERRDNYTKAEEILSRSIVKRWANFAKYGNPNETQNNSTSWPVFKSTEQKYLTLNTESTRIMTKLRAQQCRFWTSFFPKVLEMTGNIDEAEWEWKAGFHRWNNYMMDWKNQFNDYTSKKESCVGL

| Structure (SMILES) | Activity (umolequiv/umol) [1] | Ki [2] | IC50 [3] | IC50 [4] | IC50 [5] | Ratio Ki [7] | IC50 [8] | Ratio IC50 [9] | Ki [10] | IC50 [11] | Papp [12] | Activity [14] | Activity [15] | Activity [16] | Activity [17] | other results |
| --- | --- | --- | --- | --- | --- | --- | --- | --- | --- | --- | --- | --- | --- | --- | --- | --- |
| O=C(NCCC1CCN(Cc2ccccc2)CC1)c1cc(=O)c2cccc(O)c2[nH]1 | 1 | 47.4 nM | 1150 nM | > 10000 nM | 13600 nM | 6 | 77600 nM | > 8.7 | 290 nM | > 100000 nM | 4.9 ×10⁻⁶ cm/s | – | – | – | – | Ratio IC50 [6]: 7 |
| COc1ccc2[nH]cc(CCNC(C)=O)c2c1 [MELATONIN] | – | – | – | – | – | – | – | – | – | – | – | – | – | – | – | Activity [13]: 42.1% |
| COc1cc2oc(C(=O)OCC3CCN(Cc4ccccc4)CC3)cc(=O)c2cc1OC | – | – | 300 nM | > 10000 nM | – | – | – | > 33 | – | – | 3.2 ×10⁻⁶ cm/s | 19.4% | 19.6% | 12.4% | 6.8% | – |
| COc1cc2oc(C(=O)NC3CCN(Cc4ccccc4)CC3)cc(=O)c2cc1OC | – | – | 660 nM | > 10000 nM | – | – | – | > 15 | – | – | 8.1 ×10⁻⁶ cm/s | 5.7% | 18% | 12.6% | 12.3% | – |
| O=C(NCCC1CCN(Cc2ccccc2)CC1)c1cc(=O)c2cc(O)ccc2o1 | 1.2 | 42.1 nM | 91 nM | > 10000 nM | 51200 nM | 8 | > 100000 nM | > 110 | 345 nM | 39300 nM | 2.8 ×10⁻⁶ cm/s | 15% | 18.8% | 15.2% | 8.6% | inhibition [18]: 36% |
| O=C(NCCC1CCN(Cc2ccccc2)CC1)c1cc(=O)c2cc([N+](=O)[O-])ccc2o1 | – | 0.98 nM | 21 nM | 9300 nM | > 100000 nM | 293 | 9800 nM | 443 | 287 nM | 20500 nM | 8.2 ×10⁻⁶ cm/s | – | – | – | – | Ratio IC50 [19]: > 5; Activity [20]: inactive; Ki [21]: 12 nM |
| COc1cc2oc(C(=O)NCCC3CCN(Cc4ccccc4)CC3)cc(=O)c2cc1OC | – | 37.4 nM | 46 nM | > 10000 nM | 5200 nM | 6 | 74300 nM | > 217 | 239 nM | 15300 nM | 5.9 ×10⁻⁶ cm/s | 11.5% | 18.1% | 22.4% | 17.1% | Activity [20]: inactive; Ki [21]: 39 nM; Activity [22]: Active; Activity [23]: Active |
| COc1ccc2oc(C(=O)NC3CCN(Cc4ccccc4)CC3)cc(=O)c2c1 | – | – | 970 nM | > 10000 nM | – | – | – | > 10 | – | – | 7.7 ×10⁻⁶ cm/s | 9.8% | 13.9% | 8.6% | 14.6% | – |
| O=C(NCCC1CCN(Cc2ccccc2)CC1)c1cc(=O)c2cc(O)ccc2[nH]1 | 1.4 | – | 300 nM | 9880 nM | 59900 nM | – | – | 33 | – | 51300 nM | 5.1 ×10⁻⁶ cm/s | 18.6% | 13.7% | 29.7% | 17.4% | – |
